Data set [1] concerns WT (C57BL/6J) mice. The experiment in a line: Behavioral reentrainment (wheel-running activity onsets) after 6-hour phase advance of the LD cycle. It counts as in vivo, mouse. As for the experimental part: (§1) Handling and activity measurements during experiments were performed as described previously (Jud et al. 2005). Wheel-running activity was analyzed using ClockLab software (Actimetrics). For the jet lag experiment (6-hour rapid advance or 8-hour rapid delay of the LD cycle), animals were single-housed in running wheel-equipped cages for 2 weeks or longer under LD conditions (lights on, ZT0; light intensities of 350 lux). On day 1 of the jet lag, the lights-off time (ZT12) was shifted from 6 pm to […] (phase advance paradigm) or from 6 pm to 2 am (phase delay paradigm). Using a short day protocol, we defined day 1 as the first advanced dark period (similar to Davidson et al. 2009, who used a short night approach in which the first day is defined by the deemed light period; but different from Yamazaki et al. 2000, where the following day—corresponding to day 2 in our study—was referred to as day 1). […] Animals were synchronized to the new LD regimen for another 2 weeks during which time of wheel-running activity was recorded. Individual activity onsets before and after the shift were determined by visual inspection and averaged over the whole cohort to asses reentrainment rates. […]
(§2) Peak time analyses were performed using Prism software (GraphPad). […] Maxima were calculated using the axis section of the second derivative. […]

Data set [2] concerns corticosterone excretion rhythms. The experiment in a line: Fecal corticosterone excretion rhythm after 16 days of timed metyrapone injection. The data set is classed as in vivo, mouse. The following applies: for direction of shift of the peak of maximum glucocorticoid levels: mice. As for the experimental part:
Fecal samples were collected at 4-hour intervals before and after the jet lag treatment using wheel cages equipped with wire grid floors. To rule out stress-induced effects, animals were transferred to the collection cages 3 days prior to the first sampling interval. Fecal samples were stored at −80° C. Corticoid metabolite extraction and quantification by RIA (MP Biomedicals) were performed as described previously (Abraham et al. 2006).
Administration of metyrapone (Sigma-Aldrich) to WT mice was done for 16 days prior to the jet lag procedure (see above). Two sets of 24 animals each received metyrapone dissolved in water (100 mg/kg body weight per day) via i.p. injection at different times during the day. Injections were stopped 1 day before the LD shift (day 0). METD animals were injected during the first half of their rest phase at ZT3; METN animals received metyrapone injections at the beginning of their activity phase at ZT12. At day 16 of the treatment (day-1 relative to LD shift), fecal samples were collected to analyze the phase shift of corticoid excretion rhythms. Saline-treated (0.9% NaCl) WT littermates injected at ZT3 or ZT12 were used as controls for all experiments.
Peak time analyses were performed using Prism software (GraphPad). A sine wave equation, y=BaseLine+Amplitude sin(frequency x+PhaseShift), was fitted to the data. For gene expression and corticosterone data, frequency was fixed to 24 hours. Maxima were calculated using the axis section of the second derivative. To determine PS50, a sigmoid dose-response curve with variable slope was fitted to the sine wave maxima (corticosterone), y=Bottom+(Top−Bottom) (1+10(log PS50−x) HillSlope), or onset time points (locomotor activity) for each group. To test whether the best-fit PS50 values differed between data sets, data were compared by extra sum-of-squares F test using a P value of less than 0.05 as a threshold. Maxima of gene expression or corticosterone at specific days were compared by Mann-Whitney rank sum test, even if normality tests and equal variance tests were positive, reflecting the small sample sizes of 3-9. A statistically significant difference was assumed with P values less than 0.05. Correlations between phase-shift activity onsets and corticosterone maxima were performed using linear regression. The quality of fit was estimated by r determination. Departure from linearity was tested with runs test. Normality and homoscedasticity tests were passed for all data sets. Diurnal variation of expression data was tested using Fourier analysis with CircWave version 3.3 software (Oster et al. 2006) and threshold values of 0.05 for α and a period of 24 hours.

For data set [3], the system named is WT (C57BL/6J) mice. The experiment in a line: Observations during the 16-day metyrapone injection period before jet lag. The following applies: for effect on the onset of wheel-running activity: during injection period. The data set is classed as in vivo, mouse. The protocol: Handling and activity measurements during experiments were performed as described previously (Jud et al. 2005). Wheel-running activity was analyzed using ClockLab software (Actimetrics). For the jet lag experiment (6-hour rapid advance or 8-hour rapid delay of the LD cycle), animals were single-housed in running wheel-equipped cages for 2 weeks or longer under LD conditions (lights on, ZT0; light intensities of 350 lux). On day 1 of the jet lag, the lights-off time (ZT12) was shifted from 6 pm to […] (phase advance paradigm) or from 6 pm to 2 am (phase delay paradigm). Using a short day protocol, we defined day 1 as the first advanced dark period (similar to Davidson et al. 2009, who used a short night approach in which the first day is defined by the deemed light period; but different from Yamazaki et al. 2000, where the following day—corresponding to day 2 in our study—was referred to as day 1). For the delay experiment (8-hour rapid delay of the LD cycle), animals were housed in running wheel—equipped single cages for 2 weeks or longer under LD conditions (lights on, ZT0; light intensities of 50 lux). On day 1 of the jet lag, the lights-off time (ZT12) was shifted from 12 pm to 8 pm. Day 1 was defined here as the day with the first delayed dark period. Animals were synchronized to the new LD regimen for another 2 weeks during which time of wheel-running activity was recorded. Individual activity onsets before and after the shift were determined by visual inspection and averaged over the whole cohort to asses reentrainment rates. Administration of metyrapone (Sigma-Aldrich) to WT mice was done for 16 days prior to the jet lag procedure (see above). Two sets of 24 animals each received metyrapone dissolved in water (100 mg/kg body weight per day) via i.p. injection at different times during the day. Injections were stopped 1 day before the LD shift (day 0). METD animals were injected during the first half of their rest phase at ZT3; METN animals received metyrapone injections at the beginning of their activity phase at ZT12. […]

Data set [4] relates to WT (C57BL/6J) mice. The experiment in a line: Behavioral reentrainment (wheel-running activity onsets) after 8-hour phase delay of the LD cycle. The data set is classed as in vivo, mouse. The protocol: as §1, §2
A further data set concerns hamsters. The following applies: cited from earlier work.
Setting [5] is: METD (ZT3 injection, 16 days before shift) vs SALD.
The mark [6] stands for this setting: METN (ZT12 injection, 16 days before shift) vs SALN.

Consider two compounds from US8946263B2, “Compositions and methods for modulating circadian synchronization” (Max-Planck-Gesellchaft zur Forderung der Wissenschaften E.V., priority 2011, dated 2015).

For `CC(C)(C(=O)c1cccnc1)c1cccnc1` [metyrapone, 2-methyl-1,2-di-3-pyridyl-1-propanone], the “activity resetting after 6-hour phase advance” value is “accelerated activity resetting” in the data set on WT (C57BL/6J) mice [1] (setting [5]) and “reentrained slower” in the data set with WT (C57BL/6J) mice [1] (setting [6]). Moreover, the “amplitude of glucocorticoid excretion rhythms” value in data set [2] (METD and METN, 16 days of treatment, data not shown) is given as “did not significantly change”. The “forward shift of corticosterone maximum relative to SALD control” value in data set [2] (METD: 100 mg/kg/day i.p. at ZT3 (rest phase) for 16 days, day prior to phase shift) was 1 h. Moreover, in data set [2] (METN: 100 mg/kg/day i.p. at ZT12 (beginning of activity phase) for 16 days), the “backward shift of peak corticosterone relative to SALN” value stood at 1 h. Besides, the results for the “direction of shift of the peak of maximum glucocorticoid levels” value in data set [2] (administration at 6 pm (first half of the active phase)) and in data set [2] (administration at 9 am (first half of rest phase)) were “backward shift” and “forward shift”, respectively. For the same compound, the “effect on the onset of wheel-running activity” value in the data set with WT (C57BL/6J) mice [3] (METD mice) was “no effect”; in the data set with WT (C57BL/6J) mice [3] (METN mice), “only minor effect”. In addition, the “side effect of injection” value in the data set on WT (C57BL/6J) mice [3] (daily i.p. injection, 100 mg/kg, 16 days) is “transient drowsiness”. Further, the “behavioral adaptation after 8-hour phase delay” value in the data set on WT (C57BL/6J) mice [4] (setting [5]) is given as “decelerated adaptation”; with WT (C57BL/6J) mice [4] (setting [6]) it was “more rapid behavioural adaptation”.
Turning to `CCCc1nn(C)c2c(=O)[nH]c(-c3cc(S(=O)(=O)N4CCN(C)CC4)ccc3OCC)nc12` [sildenafil], in the data set on hamsters, the “circadian responses to light” value was “enhances circadian responses to light” and the “reentrainment after phase advances of the LD cycle” value is “accelerates reentrainment”.
